Activity calls are given as the source filed them.
Experiments:
[1] = biological target: Sphingosine 1-phosphate receptor 1 (Homo sapiens, UniProt P21453); format: functional;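 note: Tango beta-arrestin reporter U2OS cells stimulated with S1P near its EC80; inhibitor potency meaning antagonism of receptor activation by the natural agonist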
[2] = biological target: G-protein coupled receptor 55 (Homo sapiens, UniProt Q9Y2T6); test: GPR55 antagonists blocking LPI-driven arrestin recruitment, primary screen, imaging, U2OS, beta-arrestin-GFP, LPI agonist (AID 2013); format: functional;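 note: antagonist potency measured as reduced agonist-driven arrestin aggregation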
Sequence of G-protein coupled receptor 55 (Q9Y2T6 whole entry): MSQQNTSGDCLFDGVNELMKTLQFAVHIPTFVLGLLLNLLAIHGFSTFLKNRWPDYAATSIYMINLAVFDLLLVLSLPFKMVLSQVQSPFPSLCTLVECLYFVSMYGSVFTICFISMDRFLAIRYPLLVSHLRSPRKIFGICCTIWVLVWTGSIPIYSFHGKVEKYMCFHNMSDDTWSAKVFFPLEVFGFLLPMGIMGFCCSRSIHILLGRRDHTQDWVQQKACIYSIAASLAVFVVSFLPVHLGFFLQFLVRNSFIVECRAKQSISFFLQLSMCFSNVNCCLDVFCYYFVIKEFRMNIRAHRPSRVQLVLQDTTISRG

Sequence of Sphingosine 1-phosphate receptor 1 (P21453 whole entry): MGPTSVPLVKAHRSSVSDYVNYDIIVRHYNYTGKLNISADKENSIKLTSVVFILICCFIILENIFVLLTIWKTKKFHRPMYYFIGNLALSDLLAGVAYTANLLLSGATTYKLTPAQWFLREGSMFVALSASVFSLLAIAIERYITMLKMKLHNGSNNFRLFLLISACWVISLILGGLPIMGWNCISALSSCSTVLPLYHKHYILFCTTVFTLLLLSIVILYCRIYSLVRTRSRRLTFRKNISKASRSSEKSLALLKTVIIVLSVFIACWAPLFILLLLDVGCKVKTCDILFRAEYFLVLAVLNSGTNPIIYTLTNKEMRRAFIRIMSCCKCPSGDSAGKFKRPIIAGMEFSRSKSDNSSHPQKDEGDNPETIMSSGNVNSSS

For COC(CNC(=O)c1ccc2c3c(onc13)-c1ccccc1C2=O)OC, the IC50 [1] was 15.1 µM (not active).
For Nc1ccc2c(c1)C(=O)C(=O)c1ccccc1-2, the IC50 [2] was 1.36 µM (active).
